From patent publication USRE48267E1, “Variants of C-type natriuretic peptide” (priority 2009, dated 2020)
Where a SMILES comes first, the peptide text is derived from it. Bridges are numbered along the chain shown (N, C = ends). The star is where a group is joined. MeO(CH2CH2O)23CH2CH2CO = COCCOCCOCCOCCOCCOCCOCCOCCOCCOCCOCCOCCOCCOCCOCCOCCOCCOCCOCCOCCOCCOCCOCCOCCC(=O)*

Test system: FGFR3^ach mice
Assay: efficacy in mouse model of mild achondroplasia
Type: in vivo
Conditions: 200 nmol/kg s.c. once daily for 5 weeks
Description: To assess the biodistribution of CNP37 in the bone growth plate in vivo and the in vivo effects of CNP37 on the growth plate (including total growth plate thickness, hypertrophic zone thickness, and cellularity of proliferating zone), bone samples were obtained from FGFR3^ach mice treated with vehicle or CNP37 as described above. For biodistribution and in vivo effects studies, tibias were fixed and stored in 70% ethanol. For immunohistochemistry, the samples were decalcified in 5% formic acid for 2 days, dehydrated and embedded in paraffin. Bones were sectioned at 5 um (microns), which were then deparaffinized, rehydrated, and used for CNP immunohistochemistry as described above. For cellular image analysis, bones were sectioned at 5 (microns), and then deparaffinized, rehydrated, and stained with Alcian Blue for 30 minutes (pH 2.5; MasterTech) and Hematoxylin &
Eosin for 30 seconds. Stained sections were visualized and photographed by brightfield microscopy. Thicknesses of the growth plate and the proliferating and hypertrophic zones were measured using ImageJ software.
The efficacy of CNP variants in enhancing growth and correcting achondroplasia was tested in a mouse model of mild achondroplasia, using a strain of transgenic mice expressing a human FGFR-3 gene having a G380R mutation (FGFR3^ach) (Wang et al., Proc. Natl. Acad. Sci. USA, 96(8): 4455-4460 (1999); Naski et al., Development USA, 125: 4977-4988 (1998); U.S. Pat. Nos. 6,265,632 and 6,136,040).
At 3 weeks of age, FGFR3^ach mice and their wild-type littermates were anesthetized to have lateral whole-body X-ray images taken by Faxitron, and randomized by body weight into the following treatment groups (n=8/group): (1) wild-type/vehicle, (2) FGFR3^ach/vehicle, (3) FGFR3^ach/CNP37, and (4) FGFR3^ach/PEO24-GANRR-CNP22(K4R) (SEQ ID NO: 36). The mice received once daily subcutaneous (s.c.) administration of designated test article (vehicle or 200 nmol/kg CNP variant) for 5 weeks. Satellite groups (n=3) were used to confirm exposure of each test article following a single subcutaneous administration on Day 1. Wild-type male FVB mice that received daily s.c. injection of vehicle for 5 weeks were used as a control for normal growth.
X-ray measurements at baseline and at the end of the study were performed to determine change in the head length, area of the skull, and the external auditory meatus (EAM, the ear canal running from the outer ear to the middle ear). Body weight and tail length were measured at least once weekly, using a digital caliper to measure tail length, and body (nasoanal) length was measured after 5 weeks of treatment. Bone (tibia, femur, ulna and humerus) lengths were measured using a digital caliper at necropsy.
On Day 37, all mice were sacrificed by terminal anesthesia and whole-animal photographs and X-ray images by Faxitron were taken. Left and right tibia, femur, humerus, and ulna were collected and measured using a digital caliper. The left portions of each bone were processed for histology, and the right portions were snap-frozen for archival. Samples obtained from the bones were used to evaluate the effects of NP variants on endochondral bone growth.

In the case of `CC[C@H](C)[C@@H]1NC(=O)[C@H](CCCNC(=N)N)NC(=O)[C@H](CC(=O)O)NC(=O)[C@H](CC(C)C)NC(=O)[C@H](CCCCN)NC(=O)[C@H](CC(C)C)NC(=O)CNC(=O)[C@H](Cc2ccccc2)NC(=O)[C@@H](NC(=O)CNC(=O)[C@H](CCCNC(=N)N)NC(=O)[C@H](CO)NC(=O)[C@H](CC(C)C)NC(=O)CNC(=O)[C@H](CCCNC(=N)N)NC(=O)[C@H](CCCNC(=N)N)NC(=O)[C@H](CC(N)=O)NC(=O)[C@H](C)NC(=O)CNC(=O)CCOCCOCCOCCOCCOCCOCCOCCOCCOCCOCCOCCOCCOCCOCCOCCOCCOCCOCCOCCOCCOCCOCCOCCOC)CSSC[C@@H](C(=O)O)NC(=O)CNC(=O)[C@H](CC(C)C)NC(=O)CNC(=O)[C@H](CO)NC(=O)[C@H](CCSC)NC(=O)[C@H](CO)NC(=O)CNC1=O` [PEO24-GANRR-CNP22(K4R)] ({MeO(CH2CH2O)23CH2CH2CO}-GANRRGLSRGCFGLKLDRIGSMSGLGC-OH; disulfide 11-27), the “Femur length, relative to vehicle-treated FGFR3^ach mice = 100%” value is reported as 100%, the “Humerus length, relative to vehicle-treated FGFR3^ach mice = 100%” value is reported as 100% and the “Naso-Anal length, relative to vehicle-treated FGFR3^ach mice = 100%” value is reported as 99%. The “Tail length, relative to vehicle-treated FGFR3^ach mice = 100%” value was 100%, the “Tibia length, relative to vehicle-treated FGFR3^ach mice = 100%” value was 102% and the “Ulna length, relative to vehicle-treated FGFR3^ach mice = 100%” value was 101%.
